Measurements taken from patent US20240173440A1, “HIGH PURITY COPPER RADIOPHARMACEUTICAL COMPOSITIONS AND DIAGNOSTIC AND THERAPEUTIC USES THEREOF” (Nuclidium AG, priority 2022, published 2024).

Assays:
PSMA [1] = molecular target: T1, PSMA (Homo sapiens (Human), UniProt Q04609); test: Specificity study: PET/CT in LNCaP xenografts after blocking with 2-PMPA, and free [61Cu]CuCl2; assay type: in vivo, mice; conditions: PET/CT 1 hour p.i.
Method: The specificity of [^61Cu]Cu-NODAGA-PSMA-I&T and [^61Cu]Cu-DOTAGA-PSMA-I&T was assessed in LNCaP xenografted mice, firstly injected with 1.3 μmol (300 μg) of 2-Phosphonomethyl pentanedioic acid (2-PMPA) as the blocking agent, followed by the injection of the radiotracer e.g. [^61Cu]Cu-DOTAGA-PSMA-I&T (100 μL/[…]/4-8 MBq) or [^61Cu]Cu-NODAGA-PSMA-I&T (100 μL/[…]/4-8 MBq). One-hour post injection PET/CT images were acquired as described in Example 8. In addition, PET/CT image of xenografts after injection of [^61Cu]CuCl2 (100 μL/7 MBq) was acquired in order to assess the total body distribution of free (uncomplexed)^61Cu. The results are shown in FIG. 10, panels A and B. L=liver; K=kidneys; T=tumor; Bl=bladder; I=intestine.

LNCaP xenografts = test: PET/CT imaging in LNCaP xenografted mice; assay type: in vivo; conditions: LNCaP-xenografted nude mice
Method: Tumor xenografted mice were injected intravenously into the tail vein with the tested radiotracer. […] Mice were anesthetized with 1.5% isoflurane and dynamic PET scans were acquired during 1 hour upon injection of the radiotracer. The mice were euthanized by CO2 at 4 hours p.i., the bladder was mechanically emptied, and static PET scans were acquired for 30 min. PET images were acquired using the R-CUBE PET scanner system (MOLECUBES, Gent, Belgium) and they were decay corrected and reconstructed with the VivoQuant software version 4.0. The CT was imaged supine, headfirst, using the NanoSPECT/CT™ scanner (Bioscan Inc.). Topograms and helical CT scans of the whole mouse were first acquired using the following parameters: X-ray tube current: 177 μA, X-ray tube voltage 45 kVp, 90 seconds and 180 frames per rotation, pitch 1. CT images were reconstructed using CTReco (version r1.146), with a standard filtered back projection algorithm (exact cone beam) and post-filtered (RamLak, 100% frequency cut-off), resulting in a pixel size of 0.2 mm. Co-registered PET/CT images were visualized using maximum intensity projection (MIP) with InVivoScope (version 1.43, Bioscan Inc.). The results are presented in the Examples that follow.

PSMA [2] = molecular target: T1, PSMA; test: PET/CT imaging in a patient with metastatic prostate cancer; assay type: in vivo; conditions: metastatic castration resistant prostate cancer, imaging 3 hours after administration
Method: Radiopharmaceutical preparation: The reaction is carried out in a GE Healthcare FASTlab 2 module. A 40 μg (28 nmol) aliquot of lyophilized NODAGA-PSMA-I&T (piCHEM, Austria) was dissolved in up to 6 mL 0.5 M sodium acetate (pH 8) and ascorbic acid (20 μg/mL), and transferred to a reaction vial. Then [^61Cu]CuCl2 in 0.05 M hydrochloric acid (0.3-1.0 GBq/mL) (3 mL) was added to the NODAGA-PSMA-I&T solution, reaching a pH between 4.5 and 6.5. The obtained reaction solution was incubated for 10 min at room temperature (approx. 20-25° C.) and dispensed to the product vial (20 mL sterile evacuated vial) over a sterile Cathivex-GV 25 mm PVDF 0.22 μm filter. The product was finally diluted with 0.9% sodium chloride for injection (B. Braun, Germany) up to 12 mL. [^61Cu]Cu-NODAGA-PSMA-I&T is produced with high radiochemical purity (≥95%). Therefore, no further purification step is necessary. All the chemicals used are trace metal grade.
The patient was co-administered […] furosemide (Lasix®, Sanofi-Aventis, Frankfurt, Germany). The imaging was performed at 3 hours following radiotracer administration on a Biograph Vision 600 (Siemens, Germany) PET/CT scanner. These images, shown in FIG. 35, were obtained from the skull to mid-thigh and reconstructed into multiplanar PT, CT, and fused PET/CT images. CT was used for attenuation correction.

T1 sequence (Q04609 whole entry): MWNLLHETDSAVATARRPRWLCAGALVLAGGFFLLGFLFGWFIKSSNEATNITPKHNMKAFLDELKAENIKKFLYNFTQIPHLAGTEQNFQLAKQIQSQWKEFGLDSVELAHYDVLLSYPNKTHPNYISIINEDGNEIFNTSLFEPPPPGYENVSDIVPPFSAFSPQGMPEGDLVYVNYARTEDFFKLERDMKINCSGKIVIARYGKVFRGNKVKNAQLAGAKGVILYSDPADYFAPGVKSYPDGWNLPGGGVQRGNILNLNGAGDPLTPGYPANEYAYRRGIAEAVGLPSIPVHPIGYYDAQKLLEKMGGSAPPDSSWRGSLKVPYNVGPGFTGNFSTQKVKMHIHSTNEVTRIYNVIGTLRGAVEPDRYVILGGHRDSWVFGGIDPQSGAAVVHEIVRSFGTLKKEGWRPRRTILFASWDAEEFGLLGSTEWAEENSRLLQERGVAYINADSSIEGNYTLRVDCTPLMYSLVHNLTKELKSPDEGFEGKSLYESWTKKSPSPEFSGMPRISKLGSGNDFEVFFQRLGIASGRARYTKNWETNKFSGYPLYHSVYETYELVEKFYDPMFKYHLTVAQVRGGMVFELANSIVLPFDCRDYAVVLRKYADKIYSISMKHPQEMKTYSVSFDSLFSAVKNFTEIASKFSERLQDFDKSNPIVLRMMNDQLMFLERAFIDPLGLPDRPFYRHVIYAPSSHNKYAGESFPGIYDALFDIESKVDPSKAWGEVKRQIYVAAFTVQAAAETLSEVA

SMILES: O=C(O)CC[C@H](NC(=O)N[C@@H](CCCCNC(=O)CCCCCCC(=O)NCCCC[C@@H](NC(=O)[C@@H](Cc1ccccc1)NC(=O)[C@@H](Cc1ccc(O)c(I)c1)NC(=O)CC[C@H](C(=O)O)N1CCN2CCN(CC1)CC(=O)[O][61Cu][O]C(=O)C2)C(=O)O)C(=O)O)C(=O)O [[^61Cu]Cu-NODAGA-PSMA-I&T]
- uptake in PSMA-positive tumors and kidneys in xenografts pre-injected with 2-PMPA (PSMA [1]): significantly lower uptake
- distribution on PET/CT images (LNCaP xenografts): accumulated in the tumor, increasing from 15 up to 60 min p.i., and in the kidneys
- tracer uptake on PET/CT in patient (PSMA [2]): intense tracer uptake by multiple osseous, pelvic lymph node, and liver metastases
